Consider 34 compounds from PubChem BioAssay AID1361 (SRMLSC, 2008).

The assay can be described thus: mitochondrial fusion inhibitors, confirmation, cell-based, chemical genetic, wild-type and mutant (AID 1361). As to conditions: Cell-based mitochondrial fusion phenotype, imaging.
The mark [1] stands for this setting: mutant cells, measured here: mutant cell line IC50.

Calls of active or inactive are those of the source. How the calls were made is not given here.

With `CCC(C)c1ccc(NC(=S)Nc2ccc(OC)cc2C)cc1` (configuration not stated), the IC50 is, setting by setting: (WT cells) 18.5 µM; under setting [1], above 25 µM.
For `CC#C[C@]1(O)CC[C@H]2[C@@H]3CCC4=CC(=O)CCC4=C3[C@@H](c3ccc(N(C)C)cc3)C[C@@]21C` the same measures were 20.9 µM and above 25 µM.
For `CCCCNC(=S)N(C)/N=C/c1c(F)c(F)c(F)c(F)c1F` the same measures were > 25 µM (inactive) and above 25 µM.
With `Cc1cc(C)c(OCC(=O)Nc2nnc(-c3ccco3)o2)c(C)c1`, the IC50 is, setting by setting: (WT cells) > 25 µM (inactive); under setting [1], above 25 µM.
For `Cc1ccc(/C=N/NC(=O)COc2ccccc2-c2ccccc2)cc1` the same measures were 14.9 µM and above 25 µM.
Taken in the same sequence, the figures for `COc1ccccc1NC(=O)CC1S/C(=N/N=C2\CCCc3ccccc32)NC1=O` (configuration not stated) were 19.6 µM and above 25 µM.
Taken in the same sequence, the figures for `Cc1cc(N2CCN(C(c3ccccc3)c3ccc(Cl)cc3)CC2)n2ncnc2n1` (configuration not stated) were 13.7 µM and 22.3 µM.
`CC1CN(c2ncnc3c2c(-c2ccccc2)cn3-c2ccc(F)cc2)CC(C)O1` (configuration not stated): the half-inhibitory concentration (IC50) (WT cells) was 21.4 µM and the IC50 under setting [1] was above 25 µM.
In the case of `O=C(COC(=O)c1ccccc1C(=O)c1ccc(Cl)c([N+](=O)[O-])c1)NC1CCCCCC1`, the IC50 is > 25 µM (inactive) (WT cells) and above 25 µM under setting [1].
Regarding `Cc1cc(C)n(CCc2nc(-c3ccc(C(C)(C)C)cc3)cs2)n1`, the IC50 reads like this: (WT cells) 22.1 µM; under setting [1], above 25 µM.
Regarding `Cc1nn(-c2cc(C)c3ccccc3n2)c2c1C1C(C2)C1(C)C` (configuration not stated), the IC50 is, setting by setting: (WT cells) > 25 µM (inactive); under setting [1], above 25 µM.
For `COc1ccc(-c2noc(-c3ccccc3-c3ccccc3)n2)cc1OC` the same measures were > 25 µM (inactive) and above 25 µM.
For `CCOc1ccc(NC(=O)C2CC(=O)N(C(C)C)C2)cc1` (configuration not stated) the same measures were > 25 µM (inactive) and above 25 µM.
`CC1CCCN(C(=O)CSc2nnc(-c3cccnc3)n2C2CCCCC2)C1` (configuration not stated): the IC50 was > 25 µM (inactive) (WT cells) and above 25 µM under setting [1].
For `O=C(CN1C(=O)COc2ccccc21)N(Cc1cccnc1)Cc1cccc(F)c1` the same measures were > 25 µM (inactive) and above 25 µM.
Taken in the same sequence, the figures for `CC1(C)CC(=O)C(C=NCc2cccnc2)=C(O)C1` were > 25 µM (inactive) and above 25 µM.
Taken in the same sequence, the figures for `Cn1c(CCN2CCN(c3ccccc3)CC2)nc2cc(NC(=O)c3ccco3)ccc21` were > 25 µM (inactive) and above 25 µM.
Consider `CCCCCCCOC(=O)c1nc(Cl)c(Cl)c(N)c1Cl`, for which the half-maximal inhibitory concentration (IC50) was 18.9 µM (WT cells) and above 25 µM under setting [1].
`CCN1CCc2nc(NC(=O)c3ccccc3)sc2C1`: the IC50 was > 25 µM (inactive) (WT cells) and above 12.5 µM under setting [1].
Taken in the same sequence, the figures for `S=C(Nc1ccc(Oc2ccccc2)cc1)NC1CCCCCC1` were 5.19 µM and 10 µM.
For `COc1ccccc1-c1nnc(SCC(=O)NCc2c(C)c(Cl)cc(C(C)C)c2O)o1` the same measures were 9.66 µM and above 25 µM.
In turn, `CC(C)(C)N=C1NN=C(c2cc3ccccc3o2)CS1` returned an IC50 under setting [1] above 25 µM.
`CCCCNC(=O)C1CCN(S(=O)(=O)c2cnc[nH]2)CC1`: the IC50 was > 25 µM (inactive) (WT cells) and above 25 µM under setting [1].
For `O=C(CSCc1cccc(Cl)c1)Nc1ccccc1-c1ccccc1` the same measures were 12.1 µM and above 25 µM.
For `CC(C)(C)CC(C)(C)NC(=O)Nc1cccc([N+](=O)[O-])c1` the same measures were > 25 µM (inactive) and above 25 µM.
As to `CCOc1ccc(Br)cc1C1C(C(=O)OC)=C(N)Oc2cc(N(C)C)ccc21` (configuration not stated), the IC50 reads like this: (WT cells) 11.7 µM; under setting [1], above 25 µM.
Taken in the same sequence, the figures for `CC1CCN(C(C)C(=O)Nc2ccccc2-c2ccccc2)CC1` (configuration not stated) were > 25 µM (inactive) and above 25 µM.
Taken in the same sequence, the figures for `COc1ccc(-c2cn[nH]c2-c2ccc(OCc3ccc([N+](=O)[O-])cc3)cc2O)cc1` were 10 µM and above 25 µM.
Regarding `CSc1ccc(OC2CCCCC2NS(=O)(=O)c2ccc(Cl)cc2)cc1` (configuration not stated), the half-maximal inhibitory concentration (IC50) runs as follows: (WT cells) 16.2 µM; under setting [1], above 25 µM.
For `Cc1oc(-c2ccccc2)nc1CN1C(=O)C(C)N=C(c2ccccc2F)c2cc(Cl)ccc21` (configuration not stated) the same measures were 12.4 µM and above 25 µM.
Taken in the same sequence, the figures for `Cc1[nH]c2ccccc2c1/C=C(\C#N)C(=O)NC(C)c1ccccc1` (configuration not stated) were > 25 µM (inactive) and above 25 µM.
Take `COC(=O)c1ccc(/C=C(\C#N)c2nc3ccccc3s2)cc1`: the IC50 is, setting by setting: (WT cells) > 25 µM (inactive); under setting [1], above 25 µM.
In the case of `O=C(CSc1nc2cc(Cl)ccc2o1)NCCc1ccccc1`, the IC50 was > 25 µM (inactive) (WT cells) and above 25 µM under setting [1].
Taken in the same sequence, the figures for `COc1ccc(C2C3=C(CC(C)(C)CC3=O)Oc3ncn(Cc4ccccc4)c(=N)c32)cc1` (configuration not stated) were 12.6 µM and above 25 µM.
